Test results reported in patent US10221163B2 (priority 2015, dated 2019).
Like-named read-outs stand apart in the source and are kept apart here.

Assays:
[1] = test system: Escherichia coli expressing NDM-1 (CLB30005, CLB30016); format: cell-based; details: with imipenem 1 μg/ml; for Escherichia coli expressing NDM-1 (CLB30016) MITC95: 95% inhibition of bacterial growth; for Escherichia coli MITC95: NDM-1 strain, 95% inhibition of growth
In short: (§1)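 Imipenem 1 μg/ml + inhibitor; MBL-expressing clinical strains in 1.1×CAMHB, inoculum from saline suspension diluted 1:100; 35° C, 22–24 h; absorbance read-out.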

[2] = test system: Klebsiella pneumoniae expressing VIM-1 (IHMA599644); format: cell-based; details: for Klebsiella pneumoniae expressing VIM-1 (IHMA599644) MITC95: with imipenem 1 μg/ml, 95% inhibition of bacterial growth; for Klebsiella pneumoniae MITC95: VIM-1 strain IHMA599644, with imipenem 1 μg/ml, 95% inhibition of growth
In short: as §1

[3] = test system: Serratia marcescens expressing IMP-1 (CL5741); format: cell-based; details: for Serratia marcescens expressing IMP-1 (CL5741) MITC95: with imipenem 1 μg/ml, 95% inhibition of bacterial growth; for Serratia marcescens MITC95: IMP-1 strain CL5741, with imipenem 1 μg/ml, 95% inhibition of growth
In short: as §1

VIM-1 = VIM-1 (Pseudomonas aeruginosa (strain ATCC 15692 / DSM 22644 / CIP 104116 / JCM 14847 / LMG 12228 / 1C / PRS 101 / PAO1), UniProt A0A0F7KYQ8); experiment: biochemical; details: CCF2-FA substrate, 30 pM enzyme, 2 hours at 25° C.
Description: Enzyme Activity: Determination of IC50
The Class B enzyme activities were measured in the presence of the test inhibitor in a fluorescence assay against a commercially available substrate consisting of a cephalosporin core linking 7-hydroxycoumarin to fluorescein (CCF2-FA). […] In a 384-well microplate, the test inhibitor was incubated with the metallo-β-lactamase enzyme and the substrate for 2 hours at 25° C. […] The IC50 value was determined from semi-logarithmic plots of enzyme inhibition versus inhibitor concentration, with a curve generated using a 4-parameter fit.

IMP-1 = IMP-1 (Serratia marcescens, UniProt P52699); experiment: biochemical; format: biochemical; details: CCF2-FA substrate, 2 pM enzyme, 2 hours at 25° C.
In short: (§2)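 Fluorescence assay of metallo-β-lactamase activity using CCF2-FA, a cephalosporin-linked 7-hydroxycoumarin–fluorescein substrate. Inhibitor, enzyme and substrate were incubated together for 2 hours at 25° C. IC50 came from a 4-parameter fit of inhibition versus inhibitor concentration.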

NDM-1 = NDM-1 (Klebsiella pneumoniae, UniProt C7C422); experiment: biochemical; format: biochemical; details: fluorescence assay, CCF2-FA substrate, 1 pM enzyme, 2 hours at 25° C.; read-out: NDM-1 IC50
In short: as §2

[4] = test system: Pseudomonas aeruginosa efflux+ (MB9798), IMP-1; format: cell-based; details: concentration restoring susceptibility to imipenem at 2 μg/mL in the presence of a class A, C, D serine β-lactamase inhibitor closely related to relebactam
In short: (§3)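 Steps: add fixed imipenem and/or ceftazidime (usually CLSI breakpoint) and fixed AmpC-directed class A/C inhibitor to microbroth MIC wells; titrate MBL inhibitor; record concentration regaining susceptibility for each PAO1-derived strain; divide efflux+ by efflux− value.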

[5] = test system: Pseudomonas aeruginosa efflux− (MB9799), IMP-1; format: cell-based; details: concentration restoring susceptibility to imipenem at 2 μg/mL in the presence of a class A, C, D serine β-lactamase inhibitor closely related to relebactam
In short: as §3

[6] = fluorescence assay, read-out: VIM-1 IC50
[7] = fluorescence assay, read-out: IMP-1 IC50

NDM-1, sequence (C7C422 whole entry, looked up, species assumed): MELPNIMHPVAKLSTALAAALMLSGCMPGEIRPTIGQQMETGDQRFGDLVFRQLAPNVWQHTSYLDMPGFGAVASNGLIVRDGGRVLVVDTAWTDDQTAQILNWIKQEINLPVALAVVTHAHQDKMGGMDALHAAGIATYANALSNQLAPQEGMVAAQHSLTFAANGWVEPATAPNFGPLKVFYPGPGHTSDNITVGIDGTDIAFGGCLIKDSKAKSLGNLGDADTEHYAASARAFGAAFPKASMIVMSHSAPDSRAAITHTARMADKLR
IMP-1, sequence (P52699 whole entry, looked up, species assumed): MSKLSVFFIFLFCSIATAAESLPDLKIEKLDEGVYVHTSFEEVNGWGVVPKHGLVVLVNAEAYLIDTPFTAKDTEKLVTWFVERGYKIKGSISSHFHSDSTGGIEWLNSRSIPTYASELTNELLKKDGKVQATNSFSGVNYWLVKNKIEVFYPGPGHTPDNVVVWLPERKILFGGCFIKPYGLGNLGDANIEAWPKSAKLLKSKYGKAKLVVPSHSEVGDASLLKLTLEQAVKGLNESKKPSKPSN

Row | SMILES | Escherichia coli expressing NDM-1 (CLB30016) MITC95 [1] [µM] | Klebsiella pneumoniae expressing VIM-1 (IHMA599644) MITC95 [2] [µM] | Serratia marcescens expressing IMP-1 (CL5741) MITC95 [3] [µM] | IC50 (VIM-1; VIM-1 IC50, fluorescence assay) [nM] | IC50 (IMP-1; IMP-1 IC50, fluorescence assay) [nM] | IC50 (NDM-1) [nM] | IC50 (VIM-1; [6]) [nM] | P. aeruginosa expressing IMP-1, efflux + (MB9798) MITC95 [4] [µM] | P. aeruginosa expressing IMP-1, efflux − (MB9799) MITC95 [5] [µM] | IC50 (IMP-1; [7]) [nM] | Escherichia coli MITC95 [1] [µM] | Klebsiella pneumoniae MITC95 [2] [µM] | Serratia marcescens MITC95 [3] [µM]
1 | C[C@H](CN)NS(=O)(=O)c1ccc(-c2cccc3sc(N)nc23)c(-c2nnn[nH]2)c1S(N)(=O)=O [Example 72, (R)-4-(2-aminobenzo[d]thiazol-4-yl)-N^1-(1-aminopropan-2-yl)-3-(1H-tetrazol-5-yl)benzene-1,2-disulfonamide] | 1.563 | 3.125 | 1.563 | 0.26 | 0.27 | 0.02 | – | – | – | – | – | – | –
2 | Nc1nc2c(-c3ccc(S(=O)(=O)N4CC5C(N)C5C4)c(S(N)(=O)=O)c3-c3nnn[nH]3)cccc2s1.O=C(O)C(F)(F)F [Example 113, (1R,5S,6s)-3-((4-(2-aminobenzo[d]thiazol-4-yl)-2-sulfamoyl-3-(1H-tetrazol-5-yl)phenyl)sulfonyl)-3-azabicyclo[3.1.0]hexan-6-aminium 2,2,2-trifluoroacetate] | 1.563 | 3.125 | 3.125 | – | – | 0.646 | 0.773 | 1.563 | 1.563 | – | – | – | –
3 | CC(C)(CN)NS(=O)(=O)c1ccc(-c2cccc3sc(N)nc23)c(-c2nnn[nH]2)c1S(N)(=O)=O.O=CO [Example 117, 2-(4-(2-aminobenzo[d]thiazol-4-yl)-2-sulfamoyl-3-(1H-tetrazol-5-yl)phenylsulfonamido)-2-methylpropan-1-aminium formate] | 6.25 | 3.125 | 3.125 | – | – | 0.0126 | 0.183 | 1.563 | 1.563 | – | – | – | –
4 | Nc1nc2c(-c3ccc(S(=O)(=O)NCC(N)C(F)F)c(S(N)(=O)=O)c3-c3nnn[nH]3)cccc2s1.O=CO (centres unmarked) [Example 118, 3-(4-(2-aminobenzo[d]thiazol-4-yl)-2-sulfamoyl-3-(1H-tetrazol-5-yl)phenylsulfonamido)-1,1-difluoropropan-2-aminium formate] | 25 | 12.5 | 6.25 | 0.289 | – | 0.026 | – | 12.5 | 3.125 | – | – | – | –
5 | Nc1nc2c(-c3ccc(S(=O)(=O)NC4C[C@@H]5CN[C@H]4C5)c(S(N)(=O)=O)c3-c3nnn[nH]3)cccc2s1.O=CO (stereo partly drawn) [Example 119, 4-(2-aminobenzo[d[thiazol-4-yl)-N1-((1S,4R)-2-azabicyclo[2.2.1]heptan-6-yl)-3-(1H-tetrazol-5-yl)benzene-1,2-disulfonamide, formate salt] | – | – | – | – | – | 0.0407 | 0.254 | – | – | 0.223 | – | – | –
6 | Nc1nc2c(-c3ccc(S(=O)(=O)NC[C@@H]4CCCN4)c(S(N)(=O)=O)c3-c3nnn[nH]3)cccc2s1.O=CO [Example 125, (S)-2-((4-(2-aminobenzo[d]thiazol-4-yl)-2-sulfamoyl-3-(1H-tetrazol-5-yl)phenylsulfonamido)methyl)pyrrolidin-1-ium formate] | 1.563 | 3.125 | 1.563 | – | – | 0.0465 | 0.196 | 0.7813 | 1.563 | – | – | – | –
7 | Nc1nc2c(-c3ccc(S(=O)(=O)NC[C@H]4CCCN4)c(S(N)(=O)=O)c3-c3nnn[nH]3)cccc2s1.O=CO [Example 126, (R)-2-((4-(2-aminobenzo[d]thiazol-4-yl)-2-sulfamoyl-3-(1H-tetrazol-5-yl)phenylsulfonamido)methyl)pyrrolidin-1-ium formate] | 1.563 | 3.125 | 1.563 | – | – | 0.0569 | 0.18 | 0.7813 | 1.563 | – | – | – | –
8 | NC[C@H]1CCN(S(=O)(=O)c2ccc(-c3cccc4[nH]c(N)nc34)c(-c3nn[nH]n3)c2S(N)(=O)=O)C1 [Example 253, (R)-3-(2-amino-1H-benzo[d]imidazol-4-yl)-6-((3-(aminomethyl)pyrrolidin-1-yl)sulfonyl)-2-(2H-tetrazol-5-yl)benzenesulfonamide] | – | – | – | – | – | 0.884 | 1.53 | 1.563 | 0.7813 | 2.68 | 1.563 | 1.563 | 0.7813
9 | NCc1nc2c(-c3ccc(S(=O)(=O)NC[C@@H]4CNCCN4)c(S(N)(=O)=O)c3-c3nn[nH]n3)cccc2[nH]1 [Example 311, (S)-4-(2-(aminomethyl)-1H-benzo[d]imidazol-4-yl)-N-(piperazin-2-ylmethyl)-3-(2H-tetrazol-5-yl)benzene-1,2-disulfonamide] | – | – | – | – | – | 0.0986 | 0.11 | 1.563 | 1.563 | – | 1.563 | 3.125 | 1.563
10 | NCCNS(=O)(=O)c1ccc(-c2cccc(C(=O)N[C@@H]3CNC[C@H]3O)c2)c(-c2nn[nH]n2)c1S(N)(=O)=O [Example 344] | – | – | – | – | – | 1.39 | 0.52 | 1.563 | 0.7813 | 4.26 | 0.7813 | 1.563 | 1.563
11 | Nc1nc2c(-c3ccc(S(=O)(=O)N[C@@H]4C[C@H]4N)c(S(N)(=O)=O)c3-c3nn[nH]n3)cccc2s1 [Example 388, 4-(2-amino-1,3-benzothiazol-4-yl)-N^1-[(1R,2R)-2-aminocyclopropyl]-3-(2H-tetrazol-5-yl)benzene-1,2-disulfonamide] | – | – | – | 0.375 | – | 0.0884 | – | 1.563 | 3.125 | – | 3.125 | 6.25 | 3.125
